Source: patent publication US20150250824A1, “METHODS AND COMPOSITIONS FOR EXPANSION OF STEM CELLS AND OTHER CELLS” (The Research Foundation For The State University Of New York, priority 2014, published 2015)
Entries after “also recorded” stand apart in the source; their conditions may differ. Like-named read-outs stand apart in the source and are kept apart here.

Key:
[1] = test system: CD34+ cells isolated from peripheral blood of G-CSF-mobilized donors; assay: Ex vivo culture of mobilized peripheral blood CD34+ cells with compounds, CD34/CD38 flow cytometry; assay type: cell-based, human; details: minimal cytokines
Description: CD34+ cells were isolated from cord blood or from peripheral blood of G-CSF-mobilized adult donors and cultured as follows. Mononuclear cells (MNCs) were isolated using a simple red blood cell lysis (15 minutes at room temperature using BD PharmLyse) or using Ficoll-Paque density gradient centrifugation (Jaatinen and Laine, Current Protocols Stem Cell Biol. 1:2A.1.1-2A.1.4. (2007)). The cells were then incubated with MACS CD34+ Microbead kit (Miltenyi Biotec, Auburn, Calif.) and run through a magnetic column resulting in selection for CD34+ cells. […] Human cortex neural stem cell (hcx NSC) cells were purchased from Millipore.
CD34+ cells were cultured in […] medium ([…] Technologies, Vancouver, BC, Canada) supplemented with 10% FBS, 100 ng/ml hSCF (human stem cell factor), 100 ng/ml hTPO (human thrombopoietin), 100 ng/ml hFLT-3 ligand (Human Fms-related Tyrosine Kinase 3) (Peprotech, Rocky Hill, N.J., USA) and 100 U/ml penicillin/streptomycin (Gibco). Human cortex Neural Progenitor Cell line (hcx NSC) was maintained in ReNcell medium: ReNcell NSC Maintenance medium (Millipore) supplemented with 20 ng/ml human EGF, 20 ng/ml human bFGF (Peprotech) and 100 U/ml penicillin/streptomycin. For expansion of cells targeted for cell sorting, we used the same media containing a different cytokine cocktail of 100 ng/ml SCF, TPO and 10 ng/ml IL-3.
(§1) Cells were centrifuged for 5 minutes at 200 G at 4° C. Cells were resuspended with CD34, 38 and/or 41 conjugated antibodies for 30 minutes on ice. Cells were then washed with 2 ml of PBS and centrifuged for 5 minutes at 200 G at 4° C. The final pellet was resuspended using 300 μl of 2% formalin.
CD34+ cells isolated from peripheral blood of G-CSF-mobilized donors were cultured for 11 days with minimal cytokines and the 4 chemical cocktail (C6FZ). […] The population bearing CD34+/CD38− is associated with long-term repopulating HSCs.
CD34+ cells isolated from the peripheral blood of G-CSF-mobilized donors were next cultured for 11 days with minimal cytokines and the individual compounds, C, 6, F and Z (FIG. 13).

bone marrow CD34+ cells = test system: bone marrow CD34+ cells
Description: 616452 (also called RepSox), was purchased separately from Biovision and Millipore. […] A fresh aliquot of the chemical was used at every media change and the final concentration in media is 10 μM.
as §1
Flow cytometry study was used to analyze the immunophenotype of cultured cells. As mature, large megakaryocytes may not be detectable by flow cytometry, bone marrow CD34+ cells were cultured for 4 days in order to detect younger, small megakaryocytes. […] However, flow analysis of megakaryocytes is known to be misleading due to the sheer size of the megakaryocytes, which can have a diameter ranging from 20 um to 120 um.

[2] = test system: CD34+ cells isolated from human umbilical CB; assay type: cell-based
Description: Megakaryocytes derived from CB in vitro are usually smaller than megakaryocytes derived from bone marrow or mobilized peripheral blood from adults. Small megakaryocyte size may contribute to delayed platelet engraftment when cord blood is used for bone marrow transplantation. To test whether 616452 is able to increase fetal/neonatal megakaryocyte size and ploidy, CD34+ cells isolated from human umbilical CB were cultured in StemSpan SFEM containing SCF, TPO and Flt-3 Ligand. CB CD34+ cells in the presence of TPO after 4 or 8 day culture, were morphologically consistent of a relative homogenous population of small cells (FIG. 19A) and megakaryocytic features such as large nuclear size and cytoplasmic mass were hardly detectable.
One of the unique characteristics of megakaryocytes is the ploidy development of their nuclei, which can be easily measured using propidium iodide (PI), a fluorescent intercalating agent that binds to nucleic acids. Megakaryocyte (Mk) ploidy correlates well with their maturation and platelet production. […] Out of 10,000 events, the control cells only elicited only 1 cell with a ploidy of 16N and nothing thereon greater (FIG. 20A).

[3] = test system: CD41+ cells sorted from cultured CB CD34+ cells
Description: FIG. 22. […] CB CD34+ cells were cultured with TPO, SCF, IL-3 for 7 days prior for CD41 selection by flow cytometry.
Cells were isolated for nestin (NSCs) and FLK-1 (hemangioblasts) before further differentiation. For cell sorting, cells were centrifuged for 5 minutes at 200 G at 4° C. and resuspended with 25 μl of CD41-FITC antibody for 30 minutes on ice. Cells are then washed gently with PBS and centrifuged for 5 minutes at 200 G at 4° C. Cells are then suspended at a concentration of 10^6 cells/ml of PBS containing 2% FBS. Cells are sorted via FACS Aria.
To test this issue and the extent of megakaryocytic population in response to the chemical induction, we cultured HUBC CD34^+ cells for 12-14 days in a media specific to megakaryocyte expansion (Nikougoftar Zarif, M., et al., Cell journal 13:173-178 (2011)). The cells were labeled with a conjugated CD41 antibody and sorted by flow cytometry sorting.

CD41− cells = details: same conditions as CD41+ cells
Description: CD41− cells were also cultured under the same conditions with the control being induced using TPO and DMSO.

CB CD34+ cells = test system: CB CD34+ cells
Description: FIG. 24. […] On the right is a heat map illustrating the values of expression in terms of fold increase over controls. Green is indicative of up-regulation while red is down-regulation.
Cells were analyzed via Qiagen's PAHS-054Z hematopoiesis array containing 81 genes.

C57BL/6J mice given 5-FU = test system: C57BL/6J mice given 5-FU
Description: FIG. 25. […] Fifteen 8-week old mice were given IP injections of 5-FU (250 mg/kg) on day 0. Complete blood counts (CBCs) were done on day 2, 4, 6, 9, and 12. 616452 (10 mg/kg) was introduced via IP injections on day 5, 7 and 9. The above data is a representative sample of the overall experiment. Data values from day 4 are not included.
The inventors used C57BL/6J mice to administrate with SFU, a chemotherapy agent (150 mg/kg, intraperitoneal injection). Peripheral blood (100 ul each) from injected mice is collected for assessment of the peripheral blood count using a hematology analyzer.
616452 was introduced to eight of the mice at this point and was injected every other day for a total of three doses.

[4] = Giemsa-Wright staining (FIG. 19B)
[5] = greater dose vs 10 μM standard (FIG. 20B)

## Cc1cccc(-c2n[nH]cc2-c2ccc3ncccc3n2)n1 [compound 616452, 2-[3-(6-methyl-2-pyridinyl)-1H-pyrazol-4-yl]-1,5-naphthyridine]
[1]; 5 days, 10 μM
  expansion of CD34+ cells: rapidly expanded the CD34+ cells
[1]; 11 days, C, 6, F at 10 μM, Z at 100 nM, listed as 6
  effect on CD34+CD38+ and CD34+CD38− populations: best effect enhancing both CD34+CD38- and CD34+ and CD38+ positive cells; also recorded: ability to enhance both the population of single positive (CD34+CD38−) and double positive (CD34+CD38+) cells; also recorded: the most effects on the CD34+CD38− population
Bone marrow CD34+ cells; 4 days culture, flow cytometry
  fold increase of CD34+CD41+ cells: 2 fold
Bone marrow CD34+ cells; [4]
  average cell size: around 50 um
  cell size, largest: ≤ 90 μm
Bone marrow CD34+ cells; after 5 days of culture, 10 μM, N>3 experiments
  percentage of CD41 increased: 50-100%
Bone marrow CD34+ cells; within 4 days of culture, flow cytometry
  increase in the CD41+ population: ~100%
[2]
  cluster formation at high concentrations: no clusters in 4× concentrations or higher
  culture composition by 8 days: predominately composed of megakaryocytes
[2]; 10 μM
  change in number of 8N, 16N and 32N cells between 8 and 12 days of induction: nearly doubled
  days of culture until appearance of large megakaryocyte-like cells: 4 days
[2]; 10 μM (1×)
  growth of the cells relative to control: 25-50%
[2]; 4 or 8 day culture with TPO
  megakaryocytic features (large nuclear size, cytoplasmic mass): megakaryocytes with these features were easily observed
[2]; 4 days induction, flow cytometry
  increase of CD41 expression compared to control: 27%
[2]; 8 days induction
  number of cells with greater ploidy: drastically increased number of cells with greater ploidy
[2]; 8 days induction, PI staining
  cells of 16N ploidy out of 10,000 events: over 100 cells
[2]; flow analysis (FIG. 19C)
  CD34+CD41+ population: an increase in the CD34^+ CD41^+ population
[2]; flow analysis, 5 days induction (FIG. 19C)
  increase of the CD41+ population: 25-40%
[2]; [5]
  fold increase over the standard in 8N cells: 1.68 fold
  fold increase over the standard in 16N cells: 2.5 fold
  fold increase over the standard in 32N cells: 6 fold
[2]; human, 48 h, 100 μM
  cell death: all the cells died within 48 hours
[2]; time dependence study
  fold increase of 4N cells over control: 5 fold
  fold increase of 8N cells over control: 30 fold
  fold increase of 16N cells over control: 80 fold
[3]
  time until cells began to increase their size: ≤ 2 days
[3]; 8 days of induction
  cells of 8N out of 10,000 events: 2018 cells
  cells of 16N out of 10,000 events: 585 cells
  cells of 32N or greater out of 10,000 events: 86 cells
[3]; 8 days, vs DMSO control
  fold increase in 8N: 30 fold
  fold increase in the number of 4N: 4.5 fold
[3]; after 8 days of induction
  cells positive in CD41 live cell stain: 95%
[3]; around day 4
  cluster size: 5-15 cells
[3]; by day 6
  cluster size: 25-50 cells
[3]; day 6
  cells appearing large in size by eye: approximately 80%
[3]; within 8 days of culture
  highest ploidy reached: ≤ 64N
CD41− cells
  ploidy development: slight increase in ploidy
CB CD34+ cells
  PF4 expression on day 4 compared to that on day 2: more than 11 fold
CB CD34+ cells; day 2 of induction
  genes down-regulated: one
CB CD34+ cells; day 4 of induction
  genes down-regulated: four
C57BL/6J mice given 5-FU; 10 mg/kg every other day, three doses, after 5-FU
  platelet counts by day 12: almost twice as many platelets as normal mice
C57BL/6J mice given 5-FU; chemotherapy treated mice
  white blood cell count: significant improvement or recovery of the white blood cell count
C57BL/6J mice given 5-FU; mouse, in vivo
  platelet counts in mice not given 5-FU: little to no change
